Measurements published in patent publication US5571521A (priority 1995, dated 1996).
Where two headings read alike, the source gives them in different places.

What was measured:
[1] = tested on: Venturia inaequalis; test: Control of apple scab on plants; type: in vivo; settings: inoculated 24 hours after application
[2] = tested on: Plasmopara viticola; test: Control of grape downy mildew on plants; type: in vivo; settings: for Percent Disease Control, Preventive: inoculated 24 hours after application; for Percent Disease Control, Curative: inoculated 24 hours before application
[3] = tested on: host tissue; test: Toxicity toward host tissue
[4] = tested on: Pseudomonas aeruginosa; test: Inhibition of microorganism growth in Miller-Hinton broth (Minimal Inhibitory Concentration); type: cell-based; settings: Table 1, evaluated at 18 hours
Experimental: (§1) For each of the microorganisms listed below a culture was grown in Miller-Hinton broth (24 hour culture), and then diluted at a 1:100 ratio. This diluted culture was then grown for an additional two hours, after which the silver diphenyl hydantoin was added. […]

[5] = tested on: Staphloccoccus aereus; test: as above; type: cell-based; settings: Table 1, evaluated at 18 hours
Experimental: as §1

[6] = tested on: Klebsiella; test: as above; type: cell-based; settings: Table 1, evaluated at 18 hours
Experimental: as §1

[7] = tested on: Candida Albicans; test: as above; type: cell-based; settings: Table 1, evaluated at 18 hours
Experimental: as §1

[8] = tested on: Enterococcus (Group D Strep); test: as above; type: cell-based; settings: Table 1; 20 micrograms/ml; evaluated at 18 hours
Experimental: as §1

[9] = tested on: Phytophthora infestans; type: in vivo
[10] = tested on: Seratia; test: Inhibition of microorganism growth in Miller-Hinton broth (Minimal Inhibitory Concentration); type: cell-based, Serratia M.; settings: Table 1, evaluated at 18 hours
Experimental: as §1

[11] = tested on: pure cultures of organisms; test: Antibacterial action in pure cultures on blood agar plates; type: cell-based
[12] = tested on: Cercospora arachidicola; test: Control of peanut leafspot on plants; type: in vivo; settings: for Percent Disease Control, Preventive: inoculated 24 hours after application; for Percent Disease Control, Curative: inoculated 24 hours before application

Silver Ammonium Diphenyl Hydantoin [Silver ammonium phenytoin]
Percent Disease Control, Preventive ([1]; 5 ppm): 17%
Percent Disease Control, Preventive ([1]; 20 ppm): 95%
Percent Disease Control, Preventive ([1]; 100 ppm): 98%
Percent Disease Control, Preventive ([2]; 5 ppm): 24%
Percent Disease Control, Curative ([2]; 5 ppm): 0%
Percent Disease Control, Preventive ([2]; 20 ppm): 49%
Percent Disease Control, Curative ([2]; 20 ppm): 0%
Percent Disease Control, Preventive ([2]; 100 ppm): 87%
Percent Disease Control, Curative ([2]; 100 ppm): 0%
toxicity toward host tissue [3]: low toxicity toward host tissue
inhibition (Minimal Inhibitory Concentration table) ([4]; 20 micrograms/ml): +
inhibition (Minimal Inhibitory Concentration table) ([4]; 40 micrograms/ml): +
inhibition (Minimal Inhibitory Concentration table) ([5]; 20 micrograms/ml): +
inhibition (Minimal Inhibitory Concentration table) ([5]; 40 micrograms/ml): +
inhibition (Minimal Inhibitory Concentration table) ([6]; 1 microgram/ml): +
inhibition (Minimal Inhibitory Concentration table) ([6]; 10 micrograms/ml): +
inhibition (Minimal Inhibitory Concentration table) ([6]; 20 micrograms/ml): +
inhibition (Minimal Inhibitory Concentration table) ([7]; 20 micrograms/ml): +
inhibition (Minimal Inhibitory Concentration table) ([7]; 40 micrograms/ml): +
inhibition (Minimal Inhibitory Concentration table) [8]: +
Percent Disease Control ([9]; 5 ppm): 17%
Percent Disease Control ([9]; 20 ppm): 95%
Percent Disease Control ([9]; 100 ppm): 98%
inhibition (Minimal Inhibitory Concentration table) ([10]; 10 micrograms/ml): +
inhibition (Minimal Inhibitory Concentration table) ([10]; 20 micrograms/ml): +
inhibition (Minimal Inhibitory Concentration table) ([10]; 40 micrograms/ml): +
Antibacterial action [11]: Antibacterial action, was also demonstrated
Percent Disease Control, Preventive ([12]; 5 ppm): 16%
Percent Disease Control, Curative ([12]; 5 ppm): 0%
Percent Disease Control, Curative ([12]; 20 ppm): 0%
Percent Disease Control, Preventive ([12]; 100 ppm): 78%
Percent Disease Control, Curative ([12]; 100 ppm): 60%
